Test results: US20200071310A1, “N-ARYL PYRAZOLES AS NRF2 REGULATORS” (GLAXOSMITHKLINE INTELLECTUAL PROPERTY DEVELOPMENT LIMITED, priority 2016, published 2020)

Experiments:
[1] = system: NQO1 specific enzyme activity in BEAS-2B cells; test: BEAS-2B NQO1 MTT Assay; assay type: cell-based; conditions: Homo sapiens; NQO1 specific activity induction, BEAS-2B cells, 48 hours; read-out: EC50
Procedure, shortened: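 BEAS-2B cells plated overnight, treated with compound for 48 h at 37° C, then lysed; NQO1 activity measured kinetically by MTT cocktail at 570 nm over 30 min, with lysate aliquot for Cell Titer Glo. pEC50 from 3-parameter fit of ΔOD/min versus log concentration.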

[2] = molecular target: T1, full length Keap1 protein / full length NRF2 protein (Homo sapiens, UniProt Q14145); test: NRF2-Keap1 TR-FRET Low Protein Assay; assay type: binding
T1 construct: full length NRF2 protein and full length Keap1 protein (Keap1 exists a dimer) are used; His
T1 sequence (Q14145 whole entry): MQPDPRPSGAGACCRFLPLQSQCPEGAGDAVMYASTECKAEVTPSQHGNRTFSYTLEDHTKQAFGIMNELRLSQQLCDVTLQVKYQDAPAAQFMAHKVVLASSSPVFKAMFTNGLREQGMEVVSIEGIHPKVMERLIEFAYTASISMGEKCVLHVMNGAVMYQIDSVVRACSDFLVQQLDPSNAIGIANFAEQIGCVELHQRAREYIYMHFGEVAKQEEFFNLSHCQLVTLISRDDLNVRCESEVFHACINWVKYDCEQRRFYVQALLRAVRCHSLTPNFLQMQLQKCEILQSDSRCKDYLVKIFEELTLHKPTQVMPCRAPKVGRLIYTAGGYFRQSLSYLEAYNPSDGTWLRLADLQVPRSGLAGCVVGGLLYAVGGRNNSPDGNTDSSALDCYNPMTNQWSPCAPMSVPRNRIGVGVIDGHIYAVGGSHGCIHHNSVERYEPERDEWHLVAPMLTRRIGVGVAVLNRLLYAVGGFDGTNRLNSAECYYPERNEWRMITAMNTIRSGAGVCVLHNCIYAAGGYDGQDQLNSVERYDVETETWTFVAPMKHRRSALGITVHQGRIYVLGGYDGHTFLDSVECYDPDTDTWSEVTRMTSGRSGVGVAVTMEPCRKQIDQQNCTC
Procedure, shortened: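 Compounds were preincubated with Keap1 FlagHis (1.25 nM) for 2.25 h at 37° C, then biotin-NRF2 (2.5 nM) was added for 1.25 h at 4° C in pH 8.0 Tris buffer with DTT/CHAPS. After 1 h with Eu-streptavidin/anti-Flag APC, the 665/615 nm ratio was normalized to controls and pIC50 fitted by four-parameter equation.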

| EC50 [2] | Structure (SMILES) | EC50 [1] |
| --- | --- | --- |
| 10000 to 100000 nM | COc1ccccc1S(=O)(=O)N(C)C1CCc2ccc(-n3ncc(C(=O)O)c3[C@@H]3C[C@H]3c3cn(C)nn3)cc21 (stereo partly drawn) [Example 27, 1-(3-(2-methoxy-N-methylphenylsulfonamido)-2,3-dihydro-1H-inden-5-yl)-5-((1R,2R)-2-(1-methyl-1H-1,2,3-triazol-4-yl)cyclopropyl)-1H-pyrazole-4-carboxylic acid] | 100 to 1000 nM |
| 1000 to 10000 nM | CC[C@@H]1CN(Cc2cc(-n3ncc(C(=O)O)c3[C@@H]3C[C@H]3c3cn(C)nn3)ccc2C)Cc2ccccc2O1 [Example 28] | 100 to 1000 nM |
| 10 to 100 nM | CC[C@@H]1CN(Cc2cccc(-n3ncc(C(=O)O)c3[C@@H]3C[C@H]3c3cn(CC(F)(F)F)nn3)c2)S(=O)(=O)c2ccccc2O1 [Example 29] | 100 to 1000 nM |
| 100 to 1000 nM | C[C@H]1Cc2cc(C(F)(F)F)ccc2S(=O)(=O)N(Cc2cccc(-n3ncc(C(=O)O)c3[C@@H]3C[C@H]3c3cnn(C)c3)c2)C1 [Example 30, 1-(3-(((S)-4-Methyl-1,1-dioxido-7-(trifluoromethyl)-4,5-dihydrobenzo[f][1,2]thiazepin-2(3H)-yl)methyl)phenyl)-5-(trans-2-(1-methyl-1H-pyrazol-4-yl)cyclopropyl)-1H-pyrazole-4-carboxylic acid] | 1000 to 10000 nM |
| 1000 to 10000 nM | CC[C@@H]1CN(Cc2cccc(-n3ncc(C(=O)O)c3[C@@H]3C[C@H]3c3cnn(C)c3)c2)S(=O)(=O)c2ccccc2O1 [Example 31, 1-(3-(((R)-4-ethyl-1,1-dioxido-3,4-dihydro-2H-benzo[b][1,4,5]oxathiazepin-2-yl)methyl)-phenyl)-5-(trans-2-(1-methyl-1H-pyrazol-4-yl)cyclopropyl)-1H-pyrazole-4-carboxylic acid] | 1000 to 10000 nM |
| 1000 to 10000 nM | C[C@H]1Cc2ccccc2S(=O)(=O)N(Cc2cccc(-n3ncc(C(=O)O)c3[C@@H]3C[C@H]3c3cnn(C)c3)c2)C1 [Example 32, 1-(3-(((S)-4-methyl-1,1-dioxido-4,5-dihydrobenzo[f][1,2]thiazepin-2(3H)-yl)methyl)-phenyl)-5-(trans-2-(1-methyl-1H-pyrazol-4-yl)cyclopropyl)-1H-pyrazole-4-carboxylic acid] | 1000 to 10000 nM |
| 10000 to 100000 nM | C[C@@H]1Cc2cc(C(F)(F)F)ccc2S(=O)(=O)N(Cc2cccc(-n3ncc(C(=O)O)c3[C@@H]3C[C@H]3c3cnn(C)c3)c2)C1 [Example 33, 1-(3-(((R)-4-methyl-1,1-dioxido-7-(trifluoromethyl)-4,5-dihydro-benzo[f][1,2]thiazepin-2(3H)-yl)methyl)phenyl)-5-(trans-2-(1-methyl-1H-pyrazol-4-yl)cyclopropyl)-1H-pyrazole-4-carboxylic acid] | 1000 to 10000 nM |
